Results taken from patent US4659696A, “Pharmaceutical composition and its nasal or vaginal use” (Takeda Chemical Industries, Ltd., priority 1982, dated 1987).
Read-outs that look alike come from different tables or passages of the source.

Key:
[1] = rat, in vivo
Experimental: Male SD strain rats (body weights 250 g, approx.) fasted for 16 hours are used in groups of at least 3 animals. Each animal is anesthetized with pentobarbital and administered nasal medication in accordance with the method described in International Journal of Pharmaceutics 7, 317 (1981). Then, 0.1 ml/kg of insulin solution is directly administered into the nasal cavity with a micropipette via the nostril.
In 0.1 ml of physiological saline are dissolved 100 μg of TAP-144 and 5 mg of α-cyclodextrin, and in the manner of Experimental Example 1, the 0.1 ml/kg equivalent of the solution is administered into the nasal cavity (the dose of TAP-144: […]).

[2] = rat, in vivo; remark: listed apart in the source
Experimental: (§1) SD-strain mature female rats (weighing about 270 g, 14 to 18 weeks old, in groups of 4 to 5 individuals) at diestrus as selected by the vaginal smear test covering a period of at least one week are anesthetized with pentobarbital and phenobarbital at 8-11 a.m., and a solution prepared by dissolving 500 μg of TAP-144 and 20 mg (2%), 50 mg (5%) or 100 mg (10%) of α-cyclodextrin in physiological saline in an amount to make 1 ml is administered into the vagina with about 12 mg of cotton soaked therewith at the dose level of 0.2 ml/kg (corresponding 100 μg/kg of TAP-144). Blood samples are taken from the tail vein at timed intervals and assayed for the serum TAP-144 level by radioimmunoassay [refer to Endocrinologia Japonica, vol.

in vivo = conditions: female, SD, rat, 100 ug/kg, Concentration of TAP-144 in serum
Experimental: as §1

[3] = rats, rectal Witepsol W-35 suppository, sodium cefazolin 50 mg/kg
Experimental: Thereafter, blood sampling from the tail vein is performed at timed intervals and the plasma cefazolin level is determined by bioassay using Bacillus subtilis PCI-219 as the test organism.

[4] = rats, rectal suspension, 5-FU 50 mg/kg
Experimental: An amount (corresponding to 50 mg/kg) of 5-FU and 5 mg of α-cyclodextrin are finely milled in a mortar and added to 0.1 ml of physiological saline. The mixture is subjected to ultrasonic treatment (27 KHz, 5 minutes). The thus-obtained suspension is rectally administered to rats in the manner in Experimental Example 7. Blood samples are taken from the tail vein at timed intervals and 5-FU plasma levels are determined by bioassay using Micrococcus luteus ATCC-10240 as the test organism. In the control group, the procedure is followed with α-cyclodextrin-free 5-FU.

[5] = tested on: prothrombin time (blood coagulation time); assay: Prothrombin time (blood coagulation time) after rectal heparin sodium in rats; type: in vivo, rat; conditions: heparin sodium 600 U
Experimental: A 0.27 ml portion of each blood sample is placed in a polyethylene microtube containing 0.03 ml of 3.8 w/v percent of sodium citrate, the tube contents are stirred well and then centrifuged, and the plasma portion is subjected to prothrombin time (blood coagulation time) determination using a thromboplastin reagent (Simplastin, Ono Pharmaceutical Co., Japan). In the control group, the same procedure is followed with α-cyclodextrin-free heparin sodium. […] An increased absorption of heparin is thus shown.

[6] = Saturation solubility of cyclodextrin; type: physicochemical; conditions: isotonic buffer solution (pH 7.4)

CCNC(=O)[C@@H]1CCCN1C(=O)[C@H](CCCNC(=N)N)NC(=O)[C@H](CC(C)C)NC(=O)[C@@H](CC(C)C)NC(=O)[C@H](Cc1ccc(O)cc1)NC(=O)[C@H](CO)NC(=O)[C@H](Cc1c[nH]c2ccccc12)NC(=O)[C@H](Cc1c[nH]cn1)NC(=O)[C@@H]1CCC(=O)N1 [TAP-144]
increase in bioavailability [1]: about 3.5 times | Concentration of TAP-144 in serum ([2]; female, SD, 100 ug/kg, 0.5 h): 45.3 ng/mL | promotion of vaginal absorption [2]: about 6 times | level at 0.5 h (in vivo): 28.1 ng/mL | level at 2 h (in vivo): 39.2 ng/mL | level at 4 h (in vivo): 32.1 ng/mL

Cc1nnc(SCC2=C(C(=O)O)N3C(=O)[C@@H](NC(=O)Cn4cnnn4)[C@H]3SC2)s1 [sodium cefazolin]
Plasma level ([3]; 10% (w/w) α-cyclodextrin, 0.5 hr.): 3840 ng/mL | Plasma level ([3]; 10% (w/w) α-cyclodextrin, 1 hr.): 5320 ng/mL | Plasma level ([3]; 10% (w/w) α-cyclodextrin, 2 hr.): 7370 ng/mL | Plasma level ([3]; 10% (w/w) α-cyclodextrin, 3 hr.): 6260 ng/mL | Plasma level ([3]; 10% (w/w) α-cyclodextrin, 4 hr.): 5320 ng/mL | Plasma level ([3]; no cyclodextrin, 0.5 hr.): 1760 ng/mL | Plasma level ([3]; no cyclodextrin, 1 hr.): 2210 ng/mL | Plasma level ([3]; no cyclodextrin, 2 hr.): 3000 ng/mL | Plasma level ([3]; no cyclodextrin, 3 hr.): 3490 ng/mL | Plasma level ([3]; no cyclodextrin, 4 hr.): 2540 ng/mL

O=c1[nH]cc(F)c(=O)[nH]1 [5-FU, 5-fluorouracil]
AUC (0-4 hr.) ([4]; 5% (w/v) α-cyclodextrin): 4.0 | Plasma level ([4]; 5% (w/v) α-cyclodextrin, 0.5 hr.): 1370 ng/mL | Plasma level ([4]; 5% (w/v) α-cyclodextrin, 1 hr.): 1720 ng/mL | Plasma level ([4]; 5% (w/v) α-cyclodextrin, 2 hr.): 1050 ng/mL | Plasma level ([4]; 5% (w/v) α-cyclodextrin, 4 hr.): 490 ng/mL | AUC (0-4 hr.) ([4]; no cyclodextrin): 1.1 | Plasma level ([4]; no cyclodextrin, 0.5 hr.): 970 ng/mL | Plasma level ([4]; no cyclodextrin, 1 hr.): 430 ng/mL | Plasma level ([4]; no cyclodextrin, 2 hr.): 130 ng/mL | Plasma level ([4]; no cyclodextrin, 4 hr.): 60 ng/mL

heparin sodium
Blood coagulation time ([5]; 5% (w/v) α-cyclodextrin, 0.5 hr., before administration 14.3): 17.2 s | Blood coagulation time ([5]; 5% (w/v) α-cyclodextrin, 0.75 hr., before administration 14.3): 18.4 s | Blood coagulation time ([5]; 5% (w/v) α-cyclodextrin, 1 hr., before administration 14.3): 19.7 s | Blood coagulation time ([5]; 5% (w/v) α-cyclodextrin, 1.5 hr., before administration 14.3): 18.9 s | Blood coagulation time ([5]; 5% (w/v) α-cyclodextrin, 2 hr., before administration 14.3): 19.4 s | Blood coagulation time ([5]; no cyclodextrin, 0.5 hr., before administration 13.6): 14.3 s | Blood coagulation time ([5]; no cyclodextrin, 0.75 hr., before administration 13.6): 13.7 s | Blood coagulation time ([5]; no cyclodextrin, 1 hr., before administration 13.6): 14.7 s | Blood coagulation time ([5]; no cyclodextrin, 1.5 hr., before administration 13.6): 15.3 s | Blood coagulation time ([5]; no cyclodextrin, 2 hr., before administration 13.6): 14.7 s

OC[C@H]1O[C@@H]2O[C@H]3[C@H](O)[C@@H](O)[C@@H](O[C@H]4[C@H](O)[C@@H](O)[C@@H](O[C@H]5[C@H](O)[C@@H](O)[C@@H](O[C@H]6[C@H](O)[C@@H](O)[C@@H](O[C@H]7[C@H](O)[C@@H](O)[C@@H](O[C@H]8[C@H](O)[C@@H](O)[C@@H](O[C@H]1[C@H](O)[C@H]2O)O[C@@H]8CO)O[C@@H]7CO)O[C@@H]6CO)O[C@@H]5CO)O[C@@H]4CO)O[C@@H]3CO [β-cyclodextrin]
saturation solubility [6]: about 1.8%
